These results are taken from ChEMBL document CHEMBL4354786, “Prodrug strategies for targeted therapy triggered by reactive oxygen species” (Medchemcomm, 2019).

The assay in a line: Drug metabolism in pH 7.5 HEPES buffer assessed as hydrolysis after 24 hrs.

With `O=C(O)c1ccc(S(=O)(=O)On2c(C(=O)NCc3ccc(-c4ccccc4)cc3)cccc2=O)cc1`, the Drug metabolism was 100%.

As for `O=C(NCc1ccc(-c2ccccc2)cc1)c1cccc(=O)n1OS(=O)(=O)c1ccccc1`, the Drug metabolism stood at 100%.
